Tests used:
CD-1 mice (male) [1] = conditions: oral administration; cited from earlier work
CD-1 mice (male) [2] = assay: Acute toxicity by oral administration to mice; assay type: in vivo
Method: The acute toxicity, as tested by oral administration to CD-1 mice (male), of mono-L-aspartyl chlorin e6 tetra-sodium salt is already known to be such that its 50% lethal dose is 164 mg/kg, and thus the compound is of a low toxicity (refer to Japanese Patent Application Publication Kokai Hei 9-71531).

[3] = system: MKSA cells (solid ascites carcinoma in the abdominal region); assay: Test Example 1: detection and therapy of tumor tissue by X-ray radiography (solid ascites carcinoma); assay type: in vivo, Male Balb/c mice
Method: (§1) Male Balb/c mice having a body weight of 16˜20 g (five mice per group) were inoculated, in their abdominal region, with MKSA cells to form a solid ascites carcinoma in the abdominal region of mouse. The mono-L-aspartyl chlorin e6-gold complex sodium salt (the product of Example 2 above) was administered at a dose of 0.01˜0.04 mg in the form of a physiological saline solution of said gold complex sodium salt to the cancer-bearing mice through their tail vein. At the end of one hour to three hours after the administration, the mice were anesthetized with nembutal. An X-ray beam containing the X-ray of the wavelength of 0.153 Å was irradiated from outside of the body to the abdominal region of the mice for an appropriate time.
X-ray image was formed by allowing the X-ray to pass through the abdominal region of mice and to expose and sensitize an X-ray film.
Thus, it was found and confirmed that the gold complex of the chlorin e6 derivative as administered to mice had exerted a cytocidal action to the ascites carcinoma cells upon the irradiation of X-ray to mice.

[4] = system: lesions of arteriosclerosis of artery; assay: Test Example 2: detection and therapy of lesions of arteriosclerosis by X-ray radiography; assay type: in vivo, rabbit; conditions: 8 mg via ear vein
Method: To a rabbit having a high cholesteremia and a body weight of about 4 kg was administered 8 mg of the mono-L-aspartyl chlorin e6-gold complex sodium salt (the product of Example 2) through the ear vein. One hour after the administration, anesthesia with nembutal was done to the rabbit. Then, the whole body of the rabbit was irradiated for an appropriate time with an X-ray beam containing the X-ray of the wavelength of 0.153 Å which suited to the electron absorption of the K-shell of gold atom. The X-ray which had passed through the rabbit was allowed to sensitize an X-ray film and to produce X-ray image.

[5] = system: PC-10 cells originated from human lung cancer; assay: Test Example 3: X-ray radiography of PC-10 solid cancer on the back of nude mice; assay type: in vivo; conditions: nude mice with PC-10 solid cancer on the back; procedure of Test Example 1
Method: as §1
The procedure of Test Example 1 was repeated except that the ascites carcinoma-bearing used in Test Example 1 were replaced by nude mice which had on the back of the body a solid cancer as formed by transplantation of PC-10 cells originated from human lung cancer.

C=Cc1c(C)c2cc3nc(c(CC(=O)N[C@@H](CC(=O)[O-])C(=O)[O-])c4[nH]c(cc5nc(cc1[nH]2)C(C)=C5CC)c(C)c4C(=O)[O-])[C@@H](CCC(=O)[O-])[C@@H]3C.[Na+].[Na+].[Na+].[Na+] [mono-L-aspartyl chlorin e6 tetra-sodium salt]
50% lethal dose (acute toxicity) (CD-1 mice (male) [1]): 164 mg/kg

mono-L-aspartyl chlorin e6-gold complex sodium salt [Example 2]
acute toxicity upon oral administration, compared with mono-L-aspartyl chlorin e6 tetrasodium salt (CD-1 mice (male) [2]): substantially same as that of the mono-L-aspartyl chlorin e6 tetrasodium salt
X-ray image of the solid cancer on X-ray film ([3]; 0.01~0.04 mg i.v. (tail vein), X-ray beam containing 0.153 Å irradiated 1-3 hours after administration): sharply imaged
dimensions of the solid cancer compared with those at the time of the X-ray photograph ([3]; one week after the X-ray irradiation, 0.01~0.04 mg i.v.): reduced significantly
X-ray image of the lesions of arteriosclerosis ([4]; rabbit with high cholesteremia, X-ray beam containing 0.153 Å one hour after administration): sharp X-ray image
dimensions of the lesions of arteriosclerosis compared with those at the time of X-ray irradiation ([4]; one week after the X-ray irradiation): clearly diminished
X-ray image of the solid cancer on X-ray film [5]: Sharp X-ray image
